From US12247010B2, “Tubulin inhibitors” (LIN BIOSCIENCE PTY LTD., priority 2017, dated 2025) come the findings set out here.

One test concerns U87MG cells. The experiment in a line: Cytotoxicity assay (cell viability, CellTiter 96 Aqueous MTS). The following applies: Homo sapiens, U-87 MG, 72 h, 72 hours incubation, starting concentration 50 uM, 9 point half log dilution, average where tested repeatedly. The class given is cell-based. Put shortly:
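U87MG cells plated at 7×10^3 cells/well overnight, then treated 72 h with 9-point half-log dilutions from a 50 uM starting concentration. Viability measured with CellTiter 96 Aqueous MTS; IC50 calculated from viability.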

For another test, the system named is tubulin. The experiment in a line: Tubulin polymerization assay (Cytoskeleton, Inc. inhibitor screening protocol). The class given is biochemical. The following applies: 3 μM, 37C, compared to DMSO control. As for the experimental part:
Example 4. Tubulin Polymerization Assay
Compounds described herein were tested in a tubulin polymerization inhibition assay using the general manufacturer's protocol for inhibitor screening (Cytoskeleton, Inc. BK01 IP). DMSO was used as a negative control, and vinblastine was tested as a positive control. All compounds were tested at a concentration of 3 μM, and incubation was carried out at 37C for 60 minutes. Results were calculated as a percent inhibition (compared to DMSO control) after 60 min of incubation, the results of which are shown in Table 3.

What is called IC50 is the midpoint of a concentration-inhibition curve. A low value points to higher potency. `Cc1ncccc1C(=O)NCCCc1ccc(-c2ccccc2F)cc1` [Compound 81, N-(3-(2′-fluoro-[1,1′-biphenyl]-4-yl)propyl)-2-methylnicotinamide]: the IC50 with U87MG cells was less than 500 nM. Besides, the “% Tubulin Polymerization at 60 min” value in the test on tubulin is reported as “A (A is < 20%)”.

As to `Nc1ncc(C(=O)NCCCc2ccc(-c3ccccc3F)cc2)cn1` [Compound 96], the IC50 in the test on U87MG cells was less than 500 nM. Further, in the test on tubulin, the “% Tubulin Polymerization at 60 min” value was “A (A is < 20%)”.

Compound `COc1ccc(CC(=O)NCCCc2ccc(-c3ccccc3F)cc2)cc1` [Compound 101, N-(3-(2′-fluoro-[1,1′-biphenyl]-4-yl)propyl)-2-(4-methoxyphenyl)acetamide] came in with an IC50 in the test on U87MG cells of less than 500 nM. Moreover, in the test with tubulin, the “% Tubulin Polymerization at 60 min” value is “C (C is 41-60%)”.

As for `O=C(NCCCc1ccc(-c2ccccc2F)cc1)c1ccc2[nH]cnc2c1` [Compound 136, N-(3-(2′-fluoro-[1,1′-biphenyl]-4-yl)propyl)-1H-benzo[d]imidazole-5-carboxamide], in the test with U87MG cells, the IC50 was less than 500 nM. For the same compound, the “% Tubulin Polymerization at 60 min” value with tubulin is recorded as “A (A is < 20%)”.

With `Cc1ncc(C(=O)NCCCc2ccc(-c3ccccc3F)cc2)s1` [Compound 138, N-(3-(2′-fluoro-[1,1′-biphenyl]-4-yl)propyl)-2-methylthiazole-5-carboxamide], the IC50 in the test with U87MG cells is less than 500 nM. Also, in the test on tubulin, the “% Tubulin Polymerization at 60 min” value is recorded as “A (A is < 20%)”.

In the test on U87MG cells, `O=C(CCCc1ccc(-c2ccc3[nH]c(=O)ccc3c2)cc1)Nc1cccnc1` [Compound 207, 4-(4-(2-oxo-1,2-dihydroquinolin-6-yl)phenyl)-N-(pyridin-3-yl)butanamide] yielded an IC50 of less than 500 nM. In addition, the “% Tubulin Polymerization at 60 min” value in the test on tubulin is listed as “D (D is 61-80%)”.

On to `O=C(CCCc1ccc(-c2ccc3cnccc3c2)cc1)Nc1cccnc1` [Compound 214, 4-(4-(isoquinolin-6-yl)phenyl)-N-(pyridin-3-yl)butanamide], for which the half-inhibitory concentration (IC50) in the test with U87MG cells is less than 500 nM. The “% Tubulin Polymerization at 60 min” value in the test on tubulin is recorded as “F (F is 81-100%)”.

Regarding `Cc1ccc(C(=O)NCCCc2ccc(-c3ccc4c(cnn4C)c3)cc2)cn1` [Compound 226, 6-methyl-N-(3-(4-(1-methyl-1H-indazol-5-yl)phenyl)propyl)nicotinamide], in the test with U87MG cells, the IC50 was less than 500 nM. Also, the “% Tubulin Polymerization at 60 min” value in the test on tubulin is recorded as “C (C is 41-60%)”.

In the test with U87MG cells, `Cc1cc(C(=O)NCCCc2ccc(-c3ccc4[nH]ncc4c3C)cc2)no1` [Compound 230, 5-methyl-N-(3-(4-(4-methyl-1H-indazol-5-yl)phenyl)propyl)isoxazole-3-carboxamide] gave an IC50 of less than 500 nM. For the same compound, in the test on tubulin, the “% Tubulin Polymerization at 60 min” value is “C (C is 41-60%)”.

For `Cn1ncc2cc(-c3ccc(CCCNC(=O)c4cnc(N)nc4)cc3)ccc21` [Compound 232, 2-amino-N-(3-(4-(1-methyl-1H-indazol-5-yl)phenyl)propyl)pyrimidine-5-carboxamide], in the test with U87MG cells, the IC50 is less than 500 nM. In addition, the “% Tubulin Polymerization at 60 min” value in the test with tubulin is reported as “C (C is 41-60%)”.

`Cc1cc(C(=O)NCCCc2ccc(-c3cnc4[nH]ccc4c3)cc2)n(C)n1` [Compound 233, N-(3-(4-(1H-pyrrolo[2,3-b]pyridin-5-yl)phenyl)propyl)-1,3-dimethyl-1H-pyrazole-5-carboxamide] gave an IC50 with U87MG cells of less than 500 nM. The “% Tubulin Polymerization at 60 min” value in the test with tubulin is reported as “A (A is < 20%)”.

Turning to `Cc1cc(C(=O)NCCCc2ccc(-c3ccc4ncccc4c3)cc2)no1` [Compound 239, 5-methyl-N-(3-(4-(quinolin-6-yl)phenyl)propyl)isoxazole-3-carboxamide], in the test with U87MG cells, the half-maximal inhibitory concentration (IC50) was less than 500 nM. The “% Tubulin Polymerization at 60 min” value with tubulin was “C (C is 41-60%)”.

Consider `Cc1ccc(C(=O)NCCCc2ccc(-c3ccc4[nH]ncc4c3C)cc2)cn1` [Compound 243, 6-methyl-N-(3-(4-(4-methyl-1H-indazol-5-yl)phenyl)propyl)nicotinamide], for which, in the test on U87MG cells, the 50% inhibitory concentration (IC50) is less than 500 nM. In addition, the “% Tubulin Polymerization at 60 min” value in the test with tubulin is reported as “A (A is < 20%)”.

Consider `O=C(Nc1ccc2[nH]ccc2c1)N1CCN(c2ccc(-c3ccccc3F)cc2)CC1` [Compound 280, 4-(2′-fluoro-[1,1′-biphenyl]-4-yl)-N-(1H-indol-5-yl)piperazine-1-carboxamide], for which, in the test with U87MG cells, the IC50 was less than 500 nM. In the test with tubulin, the “% Tubulin Polymerization at 60 min” value is on record as “F (F is 81-100%)”.

For the compound `Cc1ccc(C(=O)NCC2(Cc3ccc(-c4ccc5c(cnn5C)c4)cc3)CC2)cn1` [Compound 303, 6-methyl-N-((1-(4-(1-methyl-1H-indazol-5-yl)benzyl)cyclopropyl)methyl) nicotinamide], the IC50 in the test with U87MG cells is greater than 5000 nM.

Compound `COc1cccc(-c2ccc(CCCNC(=O)c3cnc(C)s3)cc2)c1F` [Compound 304, N-(3-(2′-fluoro-3′-methoxy-[1,1′-biphenyl]-4-yl)propyl)-2-methylthiazole-5-carboxamide] yielded an IC50 with U87MG cells of less than 500 nM.

Consider `Cc1ncc(C(=O)NCCCc2ccc(-c3ccc4c(cnn4C)c3)cc2)s1` [Compound 305, 2-methyl-N-(3-(4-(1-methyl-1H-indazol-5-yl)phenyl)propyl)thiazole-5-carboxamide], for which the IC50 in the test on U87MG cells is less than 500 nM.

The compound `O=C(NCCCc1ccc(-c2ccc3ncccc3c2)cc1)c1cncnc1` [Compound 306, N-(3-(4-(quinolin-6-yl)phenyl)propyl)pyrimidine-5-carboxamide] registered an IC50 in the test with U87MG cells of less than 500 nM.

`O=C(NCCCc1ccc(-c2cnc3[nH]ccc3c2)cc1)c1cncnc1` [Compound 307, N-(3-(4-(1H-pyrrolo [2,3-b]pyridin-5-yl)phenyl)propyl)pyrimidine-5-carboxamide] registered an IC50 in the test with U87MG cells of less than 500 nM.

Consider `Cc1ncc(C(=O)NCCCc2ccc(-c3ccc4[nH]ncc4c3C)cc2)s1` [Compound 308, 2-methyl-N-(3-(4-(4-methyl-1H-indazol-5-yl)phenyl)propyl)thiazole-5-carboxamide], for which, in the test on U87MG cells, the IC50 was less than 500 nM.

In the case of `Cc1ncc(C(=O)NCCCc2ccc(-c3cnc4[nH]ccc4c3)cc2)s1` [Compound 309, N-(3-(4-(1H-pyrrolo[2,3-b]pyridin-5-yl)phenyl)propyl)-2-methylthiazole-5-carboxamide], the IC50 in the test with U87MG cells was less than 500 nM.

For `Cc1ncccc1C(=O)NCCCc1ccc(-c2ccc3[nH]ncc3c2C)cc1` [Compound 310, 2-methyl-N-(3-(4-(4-methyl-1H-indazol-5-yl)phenyl)propyl)nicotinamide], the IC50 in the test on U87MG cells was less than 500 nM.

In the case of `Cc1ncccc1C(=O)NCCCc1ccc(-c2cnc3[nH]ccc3c2)cc1` [Compound 311, N-(3-(4-(1H-pyrrolo[2,3-b]pyridin-5-yl)phenyl)propyl)-2-methylnicotinamide], in the test with U87MG cells, the IC50 was less than 500 nM.

For `Cc1ccc(C(=O)NCCCc2ccc(-c3ccc4c(c3)OCC(=O)N4)cc2)cn1` [Compound 312, 6-methyl-N-(3-(4-(3-oxo-3,4-dihydro-2H-benzo[b][1,4]oxazin-7-yl)phenyl)propyl)nicotinamide], the IC50 with U87MG cells was less than 500 nM.

In the case of `Cc1cc(C(=O)NCCCc2ccc(-c3ccc4c(c3)OCC(=O)N4)cc2)n(C)n1` [Compound 313, 1,3-dimethyl-N-(3-(4-(3-oxo-3,4-dihydro-2H-benzo[b][1,4]oxazin-7-yl)phenyl)propyl)-1H-pyrazole-5-carboxamide], in the test with U87MG cells, the IC50 is less than 500 nM.

For the compound `Cc1ncccc1C(=O)NCCCc1ccc(-c2ccc3c(c2)OCC(=O)N3)cc1` [Compound 314, 2-methyl-N-(3-(4-(3-oxo-3,4-dihydro-2H-benzo[b][1,4]oxazin-7-yl)phenyl)propyl)nicotinamide], in the test with U87MG cells, the IC50 is less than 500 nM.

`Cc1ccc(C(=O)NCCCc2ccc(-c3ccc4[nH]c(=O)ccc4c3)cc2)cn1` [Compound 315, 6-methyl-N-(3-(4-(2-oxo-1,2-dihydroquinolin-6-yl)phenyl)propyl)nicotinamide] returned an IC50 in the test with U87MG cells of less than 500 nM.

`COc1ccc(CC(=O)NCCCc2ccc(-c3cnc4[nH]ccc4c3)cc2)cc1` [Compound 316, N-(3-(4-(1H-pyrrolo[2,3-b]pyridin-5-yl)phenyl)propyl)-2-(4-methoxyphenyl)acetamide] had an IC50 with U87MG cells of less than 500 nM.

In the test with U87MG cells, `COc1cccc(-c2ccc(CCCNC(=O)c3cccnc3C)cc2)c1F` [Compound 317, N-(3-(2′-fluoro-3′-methoxy-[1,1′-biphenyl]-4-yl)propyl)-2-methylnicotinamide] had a half-maximal inhibitory concentration (IC50) of less than 500 nM.

Regarding `CC[C@]1(O)C[C@@H]2CN(CCc3c([nH]c4ccccc34)[C@@](C(=O)OC)(c3cc4c(cc3OC)N(C)[C@H]3[C@@](O)(C(=O)OC)[C@H](OC(C)=O)[C@]5(CC)C=CCN6CC[C@]43[C@@H]65)C2)C1` [Vinblastine, vinblastine, reference compound], the “% Tubulin Polymerization at 60 min” value in the test on tubulin is recorded as “A (A is < 20%)”.
